Laboratory results taken from patent US20250145606A1 (Arcus Biosciences, Inc., priority 2023, published 2025).
Read-outs that look alike come from different tables or passages of the source.

Columns and labels:
CSF1R = CSF1R (Homo sapiens (Human), UniProt P07333); experiment: Inhibition of CSF1R kinase activity (HTRF KinEASE-TK); conditions: biochemical, HTRF KinEASE-TK
Method in brief: (§1)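 Phosphorylation of biotinylated TK peptide read by HTRF (665/620 nm ratio) after 120 min at rt, following 1 h enzyme–compound preincubation. ATP (2× mix): 20 μM CSF1R, 16 μM c-Kit, 40 μM PDGFRβ, 1 μM PDGFRα; MgCl2 10 mM except c-Kit 5 mM. 22-point 1:2 titration; four-parameter IC50.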

c-Kit = c-Kit (Homo sapiens (Human), UniProt P10721); experiment: Inhibition of c-Kit kinase activity (HTRF KinEASE-TK); assay type: biochemical; conditions: biochemical, HTRF KinEASE-TK
c-Kit, sequence (P10721 26-976): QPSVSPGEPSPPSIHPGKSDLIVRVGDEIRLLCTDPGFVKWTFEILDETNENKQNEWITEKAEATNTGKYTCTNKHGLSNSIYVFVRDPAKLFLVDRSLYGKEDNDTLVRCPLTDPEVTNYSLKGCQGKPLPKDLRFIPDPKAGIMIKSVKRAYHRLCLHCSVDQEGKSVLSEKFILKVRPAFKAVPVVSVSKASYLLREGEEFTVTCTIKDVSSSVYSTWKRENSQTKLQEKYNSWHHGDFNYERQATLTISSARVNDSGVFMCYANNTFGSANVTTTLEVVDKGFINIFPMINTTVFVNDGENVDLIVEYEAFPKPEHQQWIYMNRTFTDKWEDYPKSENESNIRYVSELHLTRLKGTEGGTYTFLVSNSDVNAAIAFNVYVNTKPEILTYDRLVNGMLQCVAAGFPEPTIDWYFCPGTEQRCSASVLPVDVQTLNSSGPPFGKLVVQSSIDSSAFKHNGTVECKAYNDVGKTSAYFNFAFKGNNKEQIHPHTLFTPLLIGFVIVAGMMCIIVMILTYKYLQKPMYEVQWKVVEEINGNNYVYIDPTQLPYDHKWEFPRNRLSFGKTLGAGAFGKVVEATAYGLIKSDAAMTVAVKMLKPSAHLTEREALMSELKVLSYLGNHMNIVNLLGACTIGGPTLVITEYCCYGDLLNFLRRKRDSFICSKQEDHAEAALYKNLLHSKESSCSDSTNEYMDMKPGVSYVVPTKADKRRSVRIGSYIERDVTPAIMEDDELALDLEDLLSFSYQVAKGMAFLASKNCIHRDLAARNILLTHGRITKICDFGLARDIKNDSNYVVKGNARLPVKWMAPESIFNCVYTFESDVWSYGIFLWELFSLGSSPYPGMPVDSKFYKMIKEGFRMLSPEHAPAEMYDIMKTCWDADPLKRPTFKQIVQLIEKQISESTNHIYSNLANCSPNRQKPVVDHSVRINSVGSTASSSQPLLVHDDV
Method in brief: as §1

PDGFRα = PDGFRα (Homo sapiens (Human), UniProt P16234); experiment: Inhibition of PDGFRα kinase activity (HTRF KinEASE-TK); conditions: biochemical, HTRF KinEASE-TK
PDGFRα, sequence (P16234 24-1089): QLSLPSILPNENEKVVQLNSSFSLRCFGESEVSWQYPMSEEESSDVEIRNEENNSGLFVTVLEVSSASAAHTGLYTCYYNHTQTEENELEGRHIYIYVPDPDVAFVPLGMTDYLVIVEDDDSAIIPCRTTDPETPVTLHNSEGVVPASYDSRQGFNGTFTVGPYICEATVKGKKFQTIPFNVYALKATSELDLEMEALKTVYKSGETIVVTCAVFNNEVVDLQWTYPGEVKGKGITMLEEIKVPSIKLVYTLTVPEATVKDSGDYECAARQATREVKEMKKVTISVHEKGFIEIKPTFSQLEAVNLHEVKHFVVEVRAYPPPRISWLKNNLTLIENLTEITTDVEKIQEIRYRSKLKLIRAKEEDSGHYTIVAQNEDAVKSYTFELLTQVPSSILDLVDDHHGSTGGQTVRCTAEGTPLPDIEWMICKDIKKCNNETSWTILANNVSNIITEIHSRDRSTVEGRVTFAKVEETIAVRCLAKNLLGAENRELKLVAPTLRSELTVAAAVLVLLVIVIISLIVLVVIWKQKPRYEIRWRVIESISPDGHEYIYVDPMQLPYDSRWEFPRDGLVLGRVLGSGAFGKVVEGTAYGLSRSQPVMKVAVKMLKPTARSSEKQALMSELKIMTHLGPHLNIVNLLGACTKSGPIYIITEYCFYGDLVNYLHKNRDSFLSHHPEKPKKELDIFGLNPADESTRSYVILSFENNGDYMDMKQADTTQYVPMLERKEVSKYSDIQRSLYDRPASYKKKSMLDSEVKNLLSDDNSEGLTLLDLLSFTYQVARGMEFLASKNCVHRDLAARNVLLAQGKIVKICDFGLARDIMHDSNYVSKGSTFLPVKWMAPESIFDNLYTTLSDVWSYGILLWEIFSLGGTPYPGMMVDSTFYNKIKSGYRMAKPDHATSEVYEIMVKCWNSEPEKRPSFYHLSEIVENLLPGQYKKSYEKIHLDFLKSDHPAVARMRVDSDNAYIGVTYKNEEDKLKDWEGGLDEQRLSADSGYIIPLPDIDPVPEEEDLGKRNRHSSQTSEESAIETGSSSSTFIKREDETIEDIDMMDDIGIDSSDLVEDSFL
Method in brief: as §1

PDGFRβ = PDGFRβ (Homo sapiens (Human), UniProt P09619); experiment: Inhibition of PDGFRβ kinase activity (HTRF KinEASE-TK); conditions: biochemical, HTRF KinEASE-TK
PDGFRβ, sequence (P09619 33-1106): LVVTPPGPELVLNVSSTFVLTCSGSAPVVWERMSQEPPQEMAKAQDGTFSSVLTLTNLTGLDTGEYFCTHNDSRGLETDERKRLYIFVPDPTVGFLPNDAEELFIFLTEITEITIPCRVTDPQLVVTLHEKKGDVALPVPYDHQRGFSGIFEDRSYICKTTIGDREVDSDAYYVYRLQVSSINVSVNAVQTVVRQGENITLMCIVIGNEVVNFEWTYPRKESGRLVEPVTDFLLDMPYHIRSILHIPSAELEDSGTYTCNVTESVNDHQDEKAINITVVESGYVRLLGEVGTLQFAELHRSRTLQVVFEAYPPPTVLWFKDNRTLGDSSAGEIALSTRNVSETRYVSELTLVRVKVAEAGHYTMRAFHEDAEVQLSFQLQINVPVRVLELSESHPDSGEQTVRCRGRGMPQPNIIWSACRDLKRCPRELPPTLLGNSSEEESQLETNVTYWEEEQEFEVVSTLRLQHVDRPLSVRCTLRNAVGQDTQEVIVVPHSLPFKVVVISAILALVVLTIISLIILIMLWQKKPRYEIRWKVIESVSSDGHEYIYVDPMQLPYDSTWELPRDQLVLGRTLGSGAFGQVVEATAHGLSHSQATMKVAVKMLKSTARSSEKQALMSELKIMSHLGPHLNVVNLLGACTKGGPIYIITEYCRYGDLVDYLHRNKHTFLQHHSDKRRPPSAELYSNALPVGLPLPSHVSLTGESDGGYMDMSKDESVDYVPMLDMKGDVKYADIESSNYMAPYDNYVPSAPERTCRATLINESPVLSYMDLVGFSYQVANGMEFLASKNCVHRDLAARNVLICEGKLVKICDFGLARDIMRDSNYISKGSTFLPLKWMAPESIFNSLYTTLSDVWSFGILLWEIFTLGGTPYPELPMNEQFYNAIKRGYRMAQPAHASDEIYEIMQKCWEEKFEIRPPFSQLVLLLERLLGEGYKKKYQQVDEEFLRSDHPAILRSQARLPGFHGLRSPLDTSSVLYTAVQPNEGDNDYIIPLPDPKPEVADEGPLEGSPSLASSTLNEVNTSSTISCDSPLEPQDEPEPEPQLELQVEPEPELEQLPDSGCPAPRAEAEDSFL
Method in brief: as §1

[1] = test system: Phospho-KIT (Y703) in M07e cells; experiment: Phospho-KIT (Y703) cellular assay in M07e cells; assay type: cell-based; conditions: M-07e, read-out: M07e Cell IC50
Experimental: Phospho-KIT (Y703) Cellular Assay in M07e Cells
The day prior to assay, M07e cells (DSMZ, catalog #ACC 104) were serum starved. Cells were centrifuged and cell pellet resuspended in OptiMEM (Gibco, catalog #31985062) to a density of 1×10^6-2.5×10^6 cells per mL. Cells were then incubated overnight at 5% CO2 and 37° C. in an appropriately sized flask. On the day of the experiment, an 11 point, half log titration of test compound was pre-dispensed into 96-well round bottom polypropylene plates (Corning, catalog #3365). The serum starved M07e cells were centrifuged and resuspended to a cell density of 1×10^6 cells per mL with DPBS (Gibco, catalog #14190-144). Live/Dead Green Fixable viability dye (Invitrogen, catalog #L34970) was added as 1 μL/1 mL of cell suspension. Cells were then incubated in the dark at 4° C. for 30 min. Cells were washed by centrifugation and resuspension with DPBS+0.5% BSA (Gemini Bio Products, catalog #700110/100, 30% BSA solution). Cells were resuspended, separated into two equal volumes and again centrifuged. Cell pellets were resuspended with OptiMEM™ to a cell density of 1×10^6 cells per mL. Cells were then added to the appropriate compound plate at 100,000 cells per well in 100 μL and mixed. Plates were incubated at 5% CO2 and 37° C. for 50 min. Stem Cell Factor, SCF (R&D Systems, #255-SC/CF) was diluted in OptiMEM to 1 μg/mL and added to all wells as 10 μL for a final concentration of 90.9 ng/mL. Plates were incubated at 5% CO2 and 37° C. for 10 min. Incubation was stopped by addition of 110 μL 4% paraformaldehyde solution in PBS (Life Technologies, catalog #J19943.K2). Plates were incubated at rt for at least 15 min. Plates were then centrifuged and supernatant removed by flicking. Cells were washed once by resuspension in 200 μL DPBS+0.5% BSA, centrifuged, and supernatant removed by flicking. Cells were resuspended in 100 μL 1X Permeabilization buffer (Invitrogen, catalog #88882400) and plates incubated at rt for 30 min. Plates were centrifuged, supernatant removed by flicking, and cells resuspended in 50 μL primary antibody, anti-phospho-c-KIT (Tyr703) (Cell Signaling, catalog #3073), diluted to 1 μg/mL with permeabilization buffer. Plates were incubated at rt for 1 h. Plates were centrifuged, supernatant removed, and cells resuspended with 200 μL DPBS+0.5% BSA. Plates were again centrifuged, supernatant removed by flicking, and cells resuspended in 100 μL secondary antibody, goat anti-rabbit AlexaFluor647 (AF647) (Invitrogen, catalog #A21244) diluted to 1 μg/mL with DPBS+0.5% BSA. Plates were incubated at rt for 30 min. followed by centrifugation, supernatant removal, and cell resuspension with 200 μL DPBS+0.5% BSA. Cells were washed again by centrifugation, supernatant removal, and cell resuspension with 200 μL DPBS+0.5% BSA. Samples were then read by flow cytometry. The Forward: Side scatter plot was gated and that population was gated for live cells based on the Live/Dead Green staining. The geometric mean of AF647 of the live cell population was recorded. Percentage maximum activity in each test well was calculated based on DMSO (100% activity) and positive control treated cell wells (0% activity). The potencies (IC50 values) of test compounds were determined using a standard 4-parameter non-linear regression fit.

CSF1R, sequence (P07333 20-972): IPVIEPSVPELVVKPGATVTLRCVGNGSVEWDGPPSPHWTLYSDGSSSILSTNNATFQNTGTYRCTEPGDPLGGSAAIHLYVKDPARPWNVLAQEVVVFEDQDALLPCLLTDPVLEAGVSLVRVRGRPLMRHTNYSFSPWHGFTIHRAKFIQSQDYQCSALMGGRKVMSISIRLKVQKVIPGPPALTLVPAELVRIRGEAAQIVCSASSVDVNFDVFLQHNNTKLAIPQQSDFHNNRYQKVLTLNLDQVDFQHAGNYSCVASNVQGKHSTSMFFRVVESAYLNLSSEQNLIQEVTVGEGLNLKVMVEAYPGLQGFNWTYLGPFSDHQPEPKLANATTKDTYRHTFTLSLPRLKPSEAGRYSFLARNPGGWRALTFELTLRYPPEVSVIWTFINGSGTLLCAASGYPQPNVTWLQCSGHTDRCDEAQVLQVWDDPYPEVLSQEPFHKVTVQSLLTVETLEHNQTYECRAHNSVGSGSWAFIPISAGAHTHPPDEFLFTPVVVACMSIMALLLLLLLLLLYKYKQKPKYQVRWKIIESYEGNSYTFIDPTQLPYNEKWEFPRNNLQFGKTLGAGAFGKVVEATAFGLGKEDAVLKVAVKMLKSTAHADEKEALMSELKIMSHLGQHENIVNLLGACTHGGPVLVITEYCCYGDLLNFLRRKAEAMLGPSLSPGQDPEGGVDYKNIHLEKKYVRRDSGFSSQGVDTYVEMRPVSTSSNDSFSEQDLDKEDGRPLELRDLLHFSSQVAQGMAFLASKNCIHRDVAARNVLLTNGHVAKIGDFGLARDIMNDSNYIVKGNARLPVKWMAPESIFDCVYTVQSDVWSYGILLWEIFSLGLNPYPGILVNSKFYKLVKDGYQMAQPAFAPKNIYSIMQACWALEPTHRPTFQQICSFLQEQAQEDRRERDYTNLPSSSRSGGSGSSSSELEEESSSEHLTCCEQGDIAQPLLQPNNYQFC

Row | Compound | IC50 (CSF1R) [nM] | IC50 (c-Kit) [nM] | IC50 (PDGFRα) [nM] | IC50 (PDGFRβ) [nM] | IC50 ([1]; Phospho-KIT (Y703), M07e cells) [nM] | IC50 [1] [nM]
1 | Cc1ncc(C(=O)Nc2cc(C(=O)Nc3cnc(OC[C@@H]4CC4(F)F)cn3)c(F)cc2C)s1 [Example 58, N-[5-[[5-[[(1S)-2,2-difluorocyclopropyl]methoxy]pyrazin-2-yl]carbamoyl]-4-fluoro-2-methylphenyl]-2-methyl-1,3-thiazole-5-carboxamide] | > 1000 | < 100 | > 1000 | > 1000 | < 100 | –
2 | Cc1ncc(C(=O)Nc2cc(C(=O)Nc3ccn(CC4CC4)n3)c(F)cc2C)s1 [Example 70, N-[5-[[1-(cyclopropylmethyl)pyrazol-3-yl]carbamoyl]-4-fluoro-2-methylphenyl]-2-methyl-1,3-thiazole-5-carboxamide] | > 1000 | < 100 | > 1000 | > 1000 | < 100 | –
3 | Cc1ncc(C(=O)Nc2cc(C(=O)Nc3cnc(N4CC(O)C4)cn3)c(F)cc2C)s1 [Example 71, N-(4-fluoro-5-((5-(3-hydroxyazetidin-1-yl)pyrazin-2-yl)carbamoyl)-2-methylphenyl)-2-methylthiazole-5-carboxamide] | > 1000 | < 100 | > 1000 | > 1000 | < 100 | –
4 | Cc1ncc(C(=O)Nc2cc(C(=O)Nc3cnc(N4CC[C@@H](O)C4)cn3)c(F)cc2C)s1 [Example 72, (R)—N-(4-fluoro-5-((5-(3-hydroxypyrrolidin-1-yl)pyrazin-2-yl)carbamoyl)-2-methylphenyl)-2-methylthiazole-5-carboxamide] | > 1000 | < 100 | > 1000 | > 1000 | < 100 | –
5 | COC1CN(c2cnc(NC(=O)c3cc(NC(=O)c4cnc(C)s4)c(C)cc3F)cn2)C1 [Example 73, N-(4-fluoro-5-((5-(3-methoxyazetidin-1-yl)pyrazin-2-yl)carbamoyl)-2-methylphenyl)-2-methylthiazole-5-carboxamide] | > 1000 | < 100 | > 1000 | > 1000 | < 100 | –
6 | CO[C@@H]1CCN(c2cnc(NC(=O)c3cc(NC(=O)c4cnc(C)s4)c(C)cc3F)cn2)C1 [Example 74, (R)—N-(4-fluoro-5-((5-(3-methoxypyrrolidin-1-yl)pyrazin-2-yl)carbamoyl)-2-methylphenyl)-2-methylthiazole-5-carboxamide] | > 1000 | < 100 | > 1000 | > 1000 | < 100 | –
7 | Cc1ncc(C(=O)Nc2cc(C(=O)Nc3cnc(N4CCC[C@H]4C)cn3)c(F)cc2C)s1 [Example 84, N-(5-{N-5-[(R)-2-methyl-1-pyrrolidinyl]-2-pyrazinylcarbamoyl}-4-fluoro-2-tolyl)-2-methyl-1,3-thiazole-5-carboxamide] | > 1000 | < 100 | > 1000 | > 1000 | < 100 | –
8 | Cc1ncc(C(=O)Nc2cc(C(=O)Nc3cnc(N4CCCC4)cn3)c(F)cc2C)s1 [Example 85, N-{5-[N-5-(1-pyrrolidinyl)-2-pyrazinylcarbamoyl]-4-fluoro-2-tolyl}-2-methyl-1,3-thiazole-5-carboxamide] | > 1000 | < 100 | > 1000 | > 1000 | < 100 | –
9 | Cc1ncc(C(=O)Nc2cc(C(=O)Nc3cnc(OCC4CC4)cn3)c(F)cc2C)s1 [Example 88, N-{5-[N-5-(cyclopropylmethoxy)-2-pyrazinylcarbamoyl]-4-fluoro-2-tolyl}-2-methyl-1,3-thiazole-5-carboxamide] | > 1000 | 100 to 1000 | > 1000 | > 1000 | 100 to 1000 | –
10 | COC[C@H]1CCCN1c1cnc(NC(=O)c2cc(NC(=O)c3cnc(C)s3)c(C)cc2F)cn1 [Example 90, N-(5-{N-5-[(R)-2-(methoxymethyl)-1-pyrrolidinyl]-2-pyrazinylcarbamoyl}-4-fluoro-2-tolyl)-2-methyl-1,3-thiazole-5-carboxamide] | > 1000 | < 100 | > 1000 | > 1000 | 100 to 1000 | –
11 | Cc1ncc(C(=O)Nc2cc(C(=O)Nc3cnc(N4CCC(F)(F)C4)cn3)c(F)cc2C)s1 [Example 92, N-[5-[[5-(3,3-difluoropyrrolidin-1-yl)pyrazin-2-yl]carbamoyl]-4-fluoro-2-methylphenyl]-2-methyl-1,3-thiazole-5-carboxamide] | > 1000 | < 100 | > 1000 | > 1000 | < 100 | –
12 | Cc1ncc(C(=O)Nc2cc(C(=O)Nc3cnc(N4CC[C@H](F)C4)cn3)c(F)cc2C)s1 [Example 93, N-[4-fluoro-5-[[5-[(3S)-3-fluoropyrrolidin-1-yl]pyrazin-2-yl]carbamoyl]-2-methylphenyl]-2-methyl-1,3-thiazole-5-carboxamide] | > 1000 | < 100 | > 1000 | > 1000 | < 100 | –
13 | Cc1ncc(C(=O)Nc2cc(C(=O)Nc3cnc(N4CC[C@@H](F)C4)cn3)c(F)cc2C)s1 [Example 94, N-[4-fluoro-5-[[5-[(3R)-3-fluoropyrrolidin-1-yl]pyrazin-2-yl]carbamoyl]-2-methylphenyl]-2-methyl-1,3-thiazole-5-carboxamide] | > 1000 | < 100 | > 1000 | > 1000 | < 100 | –
14 | Cc1ncc(C(=O)Nc2cc(C(=O)Nc3cnc(N4CCC[C@H]4C(F)(F)F)cn3)c(F)cc2C)s1 [Example 95, N-[4-fluoro-2-methyl-5-[[5-[(2S)-2-(trifluoromethyl)pyrrolidin-1-yl]pyrazin-2-yl]carbamoyl]phenyl]-2-methyl-1,3-thiazole-5-carboxamide] | > 1000 | < 100 | > 1000 | > 1000 | < 100 | –
15 | COC[C@@H]1CCCN1c1cnc(NC(=O)c2cc(NC(=O)c3cnc(C)s3)c(C)cc2F)cn1 [Example 97, N-[4-fluoro-5-[[5-[(2S)-2-(methoxymethyl)pyrrolidin-1-yl]pyrazin-2-yl]carbamoyl]-2-methylphenyl]-2-methyl-1,3-thiazole-5-carboxamide] | > 1000 | < 100 | > 1000 | > 1000 | 100 to 1000 | –
16 | Cc1ncc(C(=O)Nc2cc(C(=O)Nc3ccc(CC(F)(F)F)cn3)c(Cl)cc2C)s1 [Example 99, N-[4-chloro-2-methyl-5-[[5-(2,2,2-trifluoroethyl)pyridin-2-yl]carbamoyl]phenyl]-2-methyl-1,3-thiazole-5-carboxamide] | > 1000 | 100 to 1000 | > 1000 | > 1000 | – | 100 to 1000
17 | Cc1ncc(C(=O)Nc2cc(C(=O)Nc3ccnc(CC4CC4)n3)c(F)cc2C)s1 [Example 100, N-[5-[[2-(cyclopropylmethyl)pyrimidin-4-yl]carbamoyl]-4-fluoro-2-methylphenyl]-2-methyl-1,3-thiazole-5-carboxamide] | > 1000 | 100 to 1000 | > 1000 | > 1000 | 100 to 1000 | –
